Measurements: US20250122155A1, “NOVEL INDOLE DERIVATIVE, PHARMACEUTICAL COMPOSITION COMPRISING SAME, AND USE THEREOF” (MITOIMMUNE THERAPEUTICS INC., priority 2021, published 2025)
Read-outs that look alike come from different tables or passages of the source.

Experiments:
[1] = Plasma and brain drug concentration after oral administration (HPLC-MS/MS); format: in vivo
Procedure: […] parameters can be represented as maximum concentration in plasma (Cmax), time taken until maximum concentration in plasma (Tmax), area under the plasma concentration-time curve (AUClast and AUCinf), and half-life (t1/2), and the like.
The compound of Example 2 was orally administered to ICR mice at a dose of 10 mg/kg, and drug concentration in mouse plasma was measured using HPLC-MS/MS spectroscopy at 0.5, 1, 2, 4, 8 and 24 hours. The mouse brains were removed at 2 or 24 hours, and drug concentration in the brain was measured using HPLC-MS/MS spectroscopy. The area under the plasma concentration v. time curve (AUCinf) was measured to be […], and at 2 hours after administration drug concentration in plasma was 398 ng/mL and brain drug concentration was measured at 683 ng/mL. […] Further, at 24 hours after administration, for Example 2, drug concentration in plasma was measured to be 5.6 ng/mL and drug concentration in the brain was measured at 11.4 ng/mL. With the brain-plasma drug concentration ratio at 2.04, drug exposure in the brain was still high.
The Comparative Example compound was orally administered to ICR mice at a dose of 10 mg/kg, and drug concentration in mouse plasma was measured using HPLC-MS/MS spectroscopy at 0.5, 1, 2, 4, 8 and 24 hours. The mouse brains were removed at 2 or 24 hours, and drug concentration in the brain was measured using HPLC-MS/MS spectroscopy.

[2] = tested on: H9C2 cells; assay: Protective effect on heart cells against t-BHP (LDH release); format: cell-based; settings: H9C2, t-BHP 400 μM, 2 hours, read-out: EC50 (μM), Cell Protection Effect against t-BHP in Heart Cells
Procedure: In order to identify the protective effect with regard to heart cells, H9C2 cells were divided into 96-well plates by 1.5×10^4, and cultured for 24 hours. The respective wells were treated with compounds of the examples 3× serial diluted to final concentrations of 30, 10, 3, 1, 0.3, 0.1, 0.03 and 0.01 μM, then incubated for 15 to 20 minutes. After treating with t-BHP with a final concentration of 400 μM, incubation was performed for 2 hours. To confirm the protective effect of each compound, a Cytotoxicity LDH assay kit [Dojindo; CK12] was used to measure the degree of extracellular secretion of LDH. After 2-hour treatment of the cells with t-BHP was completed, 100 μL each of the supernatant in which the cells were placed was collected and moved to a new 96-well plate. 100 μL/well of the assay buffer included in the kit (same amount as the sample) was added, followed by wrapping with foil and reacting for 30 minutes at room temperature. Observing the change of color in the sample, 50 μL/well of stop solution was added, then an iD3 spectrometer was used to measure absorbance at 490 nm and calculate the EC50 values. The EC50 of the compounds of the examples is preferably no more than 1.0 μM, and more preferably no more than 0.3 μM.

[3] = ICR mouse, oral 10 mg/kg, 2 hr, 10 mg/kg
[4] = ICR mouse, oral 10 mg/kg, 24 hr, 10 mg/kg

| EC50 [2] [µM] | Compound | other results |
| --- | --- | --- |
| – | OCc1cc(NC2CCCC2)c2[nH]c(-c3ccccc3)cc2c1 [Comparative Example, reference compound] | drug concentration in brain [1, 3]: 95 ng/mL; drug concentration in plasma [1, 3]: 1122 ng/mL; drug concentration in brain [1, 4]: no drug concentration was measured; drug concentration in plasma [1, 4]: no drug concentration was measured; AUC(0-inf) ([1]; ICR mouse, oral 10 mg/kg, plasma, read-out: area under the plasma concentration v. time curve (AUCinf)): 5460 ng·h/mL; concentration at 2 h ([1]; ICR, mouse, brain, po, 10 mg/kg, 2 hr, read-out: drug concentration in brain): 95 ng/mL; concentration at 24 h ([1]; ICR, mouse, brain, po, 10 mg/kg, 24 hr, read-out: drug concentration in brain): 0 ng/mL; concentration at 0.5 h ([1]; ICR, mouse, plasma, po, 10 mg/kg, 0.5 hr): 1640 ng/mL; concentration at 1 h ([1]; ICR, mouse, plasma, po, 10 mg/kg, 1 hr): 2110 ng/mL; concentration at 2 h ([1]; ICR, mouse, plasma, po, 10 mg/kg, 2 hr, read-out: drug concentration in plasma): 1120 ng/mL; concentration at 4 h ([1]; ICR, mouse, plasma, po, 10 mg/kg, 4 hr): 389 ng/mL; concentration at 8 h ([1]; ICR, mouse, plasma, po, 10 mg/kg, 8 hr): 50.8 ng/mL; concentration at 24 h ([1]; ICR, mouse, plasma, po, 10 mg/kg, 24 hr, read-out: drug concentration in plasma): 0 ng/mL; AUC(0-t) ([1]; ICR, mouse, plasma, po, 10 mg/kg, plasma, read-out: area under the plasma concentration v. time curve (AUClast)): 5360 ng·h/mL; AUC(0-t) ([1]; ICR, mouse, plasma, po, 10 mg/kg, read-out: AUClast, plasma): 5360 ng·h/mL; Kp at 2 h ([1]; brain/plasma, ICR mouse, oral 10 mg/kg, 2 hr, read-out: brain-plasma drug concentration ratio (B/P ratio)): 0.08 |
| 0.3 to 1 | COCCOCc1cc(NCc2cccs2)c2[nH]c(-c3ccccc3)cc2c1 [Example 43, 5-(2-methoxyethoxymethyl)-2-phenyl-N-(2-thienylmethyl)-1H-indol-7-amine] | – |
| ≤ 0.3 | CCOC(=O)N1CCC(Nc2cc(COCCOC)cc3cc(-c4ccccc4)[nH]c23)CC1 [Example 44, Ethyl 4-[[5-(2-methoxyethoxymethyl)-2-phenyl-1H-indol-7-yl]amino]piperidine-1-carboxylate] | – |
| ≤ 0.3 | COCCNc1cc(COCCOC)cc2cc(-c3ccccc3)[nH]c12 [Example 46, 5-(2-methoxyethoxymethyl)-N-(2-methoxyethyl)-2-phenyl-1H-indol-7-amine] | – |
| ≤ 0.3 | COCCCNc1cc(COCCOC)cc2cc(-c3ccccc3)[nH]c12 [Example 47, 5-(2-methoxyethoxymethyl)-N-(3-methoxypropyl)-2-phenyl-1H-indol-7-amine] | – |
| ≤ 0.3 | COCCOCc1cc(NC2CCOCC2)c2[nH]c(-c3cccc(F)c3)cc2c1 [Example 48, 2-(3-fluorophenyl)-5-(2-methoxyethoxymethyl)-N-tetrahydropyran-4-yl-1H-indol-7-amine] | – |
| 0.3 to 1 | COCCOCc1cc(NC2CCCC2)c2[nH]cc(C)c2c1 [Example 49, N-cyclopentyl-5-(2-methoxyethoxymethyl)-3-methyl-1H-indol-7-amine] | – |
| ≤ 0.3 | COCCOCc1cc(NC2CCCC2)c2[nH]cc(-c3ccccc3)c2c1 [Example 51, N-cyclopentyl-5-(2-methoxyethoxymethyl)-3-phenyl-1H-indol-7-amine] | – |
| ≤ 0.3 | COCCOCc1cc(NC2CCOCC2)c2[nH]cc(-c3ccccc3)c2c1 [Example 52, 5-(2-methoxyethoxymethyl)-3-phenyl-N-tetrahydropyran-4-yl-1H-indol-7-amine] | – |
| 0.3 to 1 | COCCOCc1cc(NC2CCOCC2)c2c(c1)cc(-c1ccccc1)n2C [Example 53, 5-((2-methoxyethoxy)methyl)-1-methyl-2-phenyl-N-(tetrahydro-2H-pyran-4-yl)-1H-indol-7-amine] | – |
| ≤ 0.3 | COCCOCc1cc(NC2CCCC2)c2[nH]c(-c3ccc(Br)cc3)cc2c1 [Example 54, 2-(4-bromophenyl)-N-cyclopentyl-5-((2-methoxyethoxy)methyl)-1H-indol-7-amine] | – |
| ≤ 0.3 | COCCOCc1cc(NC2CCOCC2)c2[nH]c(-c3ccc(Br)cc3)cc2c1 [Example 55, 2-(4-bromophenyl)-5-((2-methoxyethoxy)methyl)-N-(tetrahydro-2H-pyran-4-yl)-1H-indol-7-amine] | – |
| ≤ 0.3 | COCCOCc1cc(NC2CCCC2)c2[nH]c(-c3ccc(P(C)(C)=O)cc3)cc2c1 [Example 56, (4-(7-(cyclopentylamino)-5-((2-methoxyethoxy)methyl)-1H-indol-2-yl)phenyl)dimethylphosphine oxide] | – |
| > 1 | COCCOCc1cc(NC2CCOCC2)c2[nH]c(-c3ccc(P(C)(C)=O)cc3)cc2c1 [Example 57] | – |
| 0.3 to 1 | COCCOCc1cc(NC2CCCC2)c2[nH]c(-c3ccc(C#CC(C)(C)O)cc3)cc2c1 [Example 58, 4-(4-(7-(cyclopentylamino)-5-((2-methoxyethoxy)methyl)-1H-indol-2-yl)phenyl)-2-methylbut-3-yn-2-ol] | – |
| 0.3 to 1 | COCCOCc1cc(NC2CCOCC2)c2[nH]c(-c3ccc(C#CC(C)(C)O)cc3)cc2c1 [Example 59, 4-(4-(5-((2-methoxyethoxy)methyl)-7-((tetrahydro-2H-pyran-4-yl)amino)-1H-indol-2-yl)phenyl)-2-methylbut3-yn-2-ol] | – |
| ≤ 0.3 | COCCOCc1cc(NC2CCOCC2)c2[nH]c(-c3ccc(C)cc3)cc2c1 [Example 60, 5-((2-methoxyethoxy)methyl)-N-(tetrahydro-2H-pyran-4-yl)-2-(p-tolyl)-1H-indol-7-amine] | – |
| ≤ 0.3 | COCCCOCc1cc(NC2CCCC2)c2[nH]c(-c3ccccc3)cc2c1 [Example 61, N-cyclopentyl-5-((3-methoxypropoxy)methyl)-2-phenyl-1H-indol-7-amine] | – |
| ≤ 0.3 | COCCCOCc1cc(NC2COC2)c2[nH]c(-c3ccccc3)cc2c1 [Example 62, 5-((3-methoxypropoxy)methyl)-N-(oxetan-3-yl)-2-phenyl-1H-indol-7-amine] | – |
| 0.3 to 1 | COCCCOCc1cc(NC2CCOCC2)c2[nH]c(-c3ccccc3)cc2c1 [Example 63, 5-((3-methoxypropoxy)methyl)-2-phenyl-N-(tetrahydro-2H-pyran-4-yl)-1H-indol-7-amine] | – |
| ≤ 0.3 | COCCOCCCc1cc(NC2CCOCC2)c2[nH]c(-c3ccccc3)cc2c1 [Example 65, 5-(3-(2-methoxyethoxy)propyl)-2-phenyl-N-(tetrahydro-2H-pyran-4-yl)-1H-indol-7-amine] | – |
| ≤ 0.3 | COCCOCCc1cc(NC2CCCC2)c2[nH]c(-c3ccccc3)cc2c1 [Example 66, N-cyclopentyl-5-(2-(2-methoxyethoxy)ethyl)-2-phenyl-1H-indol-7-amine] | – |
| ≤ 0.3 | COCCOCCc1cc(NC2CCOCC2)c2[nH]c(-c3ccccc3)cc2c1 [Example 67, 5-(2-(2-methoxyethoxy)ethyl)-2-phenyl-N-(tetrahydro-2H-pyran-4-yl)-1H-indole-7-amine] | – |
| > 1 | COCCOCc1cc(N2CCCCC2)c2[nH]c(-c3ccccc3)cc2c1 [Example 68, 5-((2-methoxyethoxy)methyl)-2-phenyl-7-(piperidin-1-yl)-1H-indole] | – |
